Test results: ChEMBL document CHEMBL5338805, “Discovery of the First Subnanomolar PPARα/δ Dual Agonist for the Treatment of Cholestatic Liver Diseases” (J Med Chem, 2023)
Activity calls are given as the source filed them. The rule behind the calls is not given here.

What was measured:
[1] = Anti-cholestatic activity in ANIT-induced C57BL/6Nifdc mouse model assessed as decrease in liver UCA at 0.03 to 0.1 mg/kg, po upto 42 hrs measured after 48 hrs; assay type: ADME, organism-based; conditions: in vivo, 90 h, dose 0.03-0.1 mg/kg
[2] = Down-streaming of Cyp7a1 gene expression in C57BL/6JNifdc mouse liver assessed as hepatic resorption of bile acid administered at 0.03 to 0.1 mg/kg, po for 3 days measured after 6 hrs of last administration by real-time PCR analysis; assay type: ADME, organism-based; conditions: in vivo, 78 h, dose 0.03-0.1 mg/kg, time 3.25 day
[3] = Anti-cholestatic activity in ANIT-induced C57BL/6Nifdc mouse model assessed as decrease in liver T-MCA at 0.03 to 0.1 mg/kg, po upto 42 hrs measured after 48 hrs; assay type: ADME, organism-based; conditions: in vivo, 90 h, dose 0.03-0.1 mg/kg
[4] = molecular target: Nuclear receptor ROR-alpha (Homo sapiens) (UniProt P35398); assay: Agonist activity at RORalpha (unknown origin) transfected in african green monkey COS7 cells assessed transactivation incubated at 1 uM for 16 hrs by luciferase assay; assay type: cell-based
[5] = Anti-cholestatic activity in ANIT-induced C57BL/6Nifdc mouse model assessed as downregulation of proinflammatory Nos2 gene at 0.03 to 0.1 mg/kg, po upto 42 hrs measured after 48 hrs; assay type: ADME, organism-based; conditions: in vivo, 90 h, dose 0.03-0.1 mg/kg
[6] = AUC in fasted Sprague-Dawley rat at 10 mg/kg, po measured at 0.083 to 24 hrs by LC-MS/MS analysis; assay type: ADME, organism-based; parameters: time lower 0.083 hrs, dose 10 mg/kg, time upper 24 hrs, route po; conditions: in vivo
[7] = Down-streaming of Cyp27a1 gene expression in C57BL/6JNifdc mouse liver assessed as hepatic resorption of bile acid administered at 0.03 to 0.1 mg/kg, po for 3 days measured after 6 hrs of last administration by real-time PCR analysis; assay type: ADME, organism-based; conditions: in vivo, 78 h, dose 0.03-0.1 mg/kg, time 3.25 day
[8] = In vivo upregulation of PPAR alpha in C57BL/6JNifdc mouse liver administered at 0.03 mg/kg, po for 3 days measured after 6 hrs of last administration by real-time PCR analysis; assay type: ADME, organism-based; conditions: 78 h, time 3.25 day
[9] = Anti-fibrosis activity in Ccl4-induced C57BL/6Nifdc mouse model assessed as reversal of increased Col1a1 administered orally for 3 weeks by Western blot analysis; assay type: ADME; conditions: in vivo, po, 504 h, dose 0.03-0.1 mg/kg
[10] = Anti-cholestatic activity in ANIT-induced C57BL/6Nifdc mouse model assessed as decrease in liver TCDCA at 0.03 to 0.1 mg/kg, po upto 42 hrs measured after 48 hrs; assay type: ADME, organism-based; conditions: in vivo, 90 h, dose 0.03-0.1 mg/kg
[11] = Acute toxicity in mouse assessed as lethal dose administered orally for 14 days; conditions: in vivo, po, 336 h, time 14 day
[12] = Down-streaming of Cyp27a1 gene expression in C57BL/6JNifdc mouse liver assessed as hepatic resorption of bile acid administered at 0.03 mg/kg, po for 3 days measured after 6 hrs of last administration by real-time PCR analysis; assay type: ADME, organism-based; conditions: in vivo, 78 h
[13] = Anti-cholestatic activity in ANIT-induced C57BL/6Nifdc mouse model assessed as decrease in serum total bilirubin level at 0.03 to 0.1 mg/kg, po upto 42 hrs measured after 48 hrs; assay type: ADME, organism-based; conditions: in vivo, 90 h, dose 0.03-0.1 mg/kg
[14] = Oral bioavailability in fasted Sprague-Dawley rat at 10 mg/kg measured at 0.083 to 24 hrs by LC-MS/MS analysis; assay type: ADME, organism-based; conditions: in vivo, time 0.083-24 hrs
[15] = molecular target: Oxysterols receptor LXR-alpha (Homo sapiens) (UniProt Q13133); assay: Agonist activity at LXRalpha (unknown origin) transfected in african green monkey COS7 cells assessed transactivation incubated at 1 uM for 16 hrs by luciferase assay; assay type: cell-based
[16] = Acute toxicity in mouse assessed as moribundity administered at 2000 mg/kg, po for 14 days; assay type: organism-based; conditions: in vivo, 336 h, time 14 day
[17] = molecular target: Thyroid hormone receptor beta (Homo sapiens) (UniProt P10828); assay: Agonist activity at THRbeta (unknown origin) transfected in african green monkey COS7 cells assessed transactivation incubated at 1 uM for 16 hrs by luciferase assay; assay type: cell-based
[18] = Down-streaming of NTCP gene expression in C57BL/6JNifdc mouse liver assessed as hepatic resorption of bile acid administered at 0.03 mg/kg, po for 3 days measured after 6 hrs of last administration by real-time PCR analysis; assay type: ADME, organism-based; conditions: in vivo, 78 h
[19] = Anti-cholestatic activity in ANIT-induced C57BL/6Nifdc mouse model assessed as downregulation of proinflammatory Ccl4 gene at 0.03 to 0.1 mg/kg, po upto 42 hrs measured after 48 hrs; assay type: ADME, organism-based; conditions: in vivo, 90 h, dose 0.03-0.1 mg/kg

Chain of Thyroid hormone receptor beta (Homo sapiens) (P10828 whole entry): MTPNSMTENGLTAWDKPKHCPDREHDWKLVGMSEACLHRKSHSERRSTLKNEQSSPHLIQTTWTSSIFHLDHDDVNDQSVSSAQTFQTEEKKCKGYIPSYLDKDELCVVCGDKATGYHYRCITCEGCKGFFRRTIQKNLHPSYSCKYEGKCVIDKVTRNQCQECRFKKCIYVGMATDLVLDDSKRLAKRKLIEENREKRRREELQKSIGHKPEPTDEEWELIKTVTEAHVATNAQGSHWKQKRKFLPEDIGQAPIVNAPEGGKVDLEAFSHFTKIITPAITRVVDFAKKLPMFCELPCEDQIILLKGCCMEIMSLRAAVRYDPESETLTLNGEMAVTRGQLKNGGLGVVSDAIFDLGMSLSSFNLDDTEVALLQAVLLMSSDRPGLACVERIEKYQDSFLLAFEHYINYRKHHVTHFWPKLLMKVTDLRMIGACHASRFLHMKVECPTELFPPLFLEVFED
Chain of Nuclear receptor ROR-alpha (Homo sapiens) (P35398 whole entry): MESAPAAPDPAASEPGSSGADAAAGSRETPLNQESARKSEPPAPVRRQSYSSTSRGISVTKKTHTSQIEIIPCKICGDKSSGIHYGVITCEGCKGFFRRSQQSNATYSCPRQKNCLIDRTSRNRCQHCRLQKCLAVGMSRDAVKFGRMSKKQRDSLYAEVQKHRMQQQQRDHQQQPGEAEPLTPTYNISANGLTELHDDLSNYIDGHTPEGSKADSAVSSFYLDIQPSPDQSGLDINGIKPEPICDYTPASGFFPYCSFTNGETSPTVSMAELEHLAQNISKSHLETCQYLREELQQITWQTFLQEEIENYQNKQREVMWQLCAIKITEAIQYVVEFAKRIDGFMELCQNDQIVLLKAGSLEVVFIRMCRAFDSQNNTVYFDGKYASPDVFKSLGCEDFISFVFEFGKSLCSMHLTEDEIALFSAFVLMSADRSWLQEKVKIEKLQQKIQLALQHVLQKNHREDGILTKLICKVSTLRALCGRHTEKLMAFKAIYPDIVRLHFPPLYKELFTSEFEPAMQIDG
Chain of Oxysterols receptor LXR-alpha (Homo sapiens) (Q13133 whole entry): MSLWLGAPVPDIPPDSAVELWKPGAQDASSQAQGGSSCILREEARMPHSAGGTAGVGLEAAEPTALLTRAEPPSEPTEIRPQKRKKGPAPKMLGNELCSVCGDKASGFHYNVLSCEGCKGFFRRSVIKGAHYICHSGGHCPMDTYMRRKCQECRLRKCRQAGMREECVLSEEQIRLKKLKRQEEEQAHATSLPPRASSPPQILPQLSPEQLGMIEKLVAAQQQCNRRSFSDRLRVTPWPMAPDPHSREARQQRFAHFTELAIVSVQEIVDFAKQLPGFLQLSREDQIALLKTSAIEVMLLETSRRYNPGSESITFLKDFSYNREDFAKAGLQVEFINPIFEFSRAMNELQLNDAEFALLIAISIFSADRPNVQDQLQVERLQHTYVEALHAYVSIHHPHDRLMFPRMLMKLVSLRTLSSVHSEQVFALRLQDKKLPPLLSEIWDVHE

## Cc1cc(CN2C(=O)CN(c3ccc(C(F)(F)F)cc3)C2=O)cc(C)c1OC(C)(C)C(=O)O
[1]
  Activity: Active
[2]
  Activity: Active
[3]
  Activity: Active
[4]
  Activity: inactive
[5]
  Activity: Active
[6]
  AUC: 22300 ng·h/mL
[7]
  Activity: Active
[8]
  Activity: Active
[9]
  Activity: Dose-Dependent Effect
[10]
  Activity: Active
[11]
  LD: > 2 g/kg
[12]
  Activity: Active
[13]
  Activity: Active
[14]
  bioavailability: 105%
[15]
  Activity: inactive
[16]
  Activity: Non-Toxic
[17]
  Activity: inactive
[18]
  Activity: Active
[19]
  Activity: Active
